{"source": "patent US8772265B2", "about": "“Water soluble curcumin compositions for use in anti-cancer and anti-inflammatory therapy” (Universite Libre de Bruxelles, priority 2008, dated 2014)", "key": {"[1]": {"tested_on": "A549", "assay": "MTT test, overall cell growth, A549", "format": "cell-based, human", "conditions": "read-out: IC50 A549", "method": "(§1) MTT tests were performed in order to rapidly, i.e. within 5 days, measure the effect of compounds of this invention on the overall cell growth. […] The amount of formazan obtained at the end of the experiment, measured by means of a spectrophotometer, is directly proportional to the number of living cells. Optical density determination thus enabled a quantitative measurement of the effect of the investigated compounds as compared to the control condition (untreated cells) and/or to other reference compounds. Six human cancer cell lines described in Table 5 were used in the following MTT tests. These cancer cell lines cover six histological cancer types, being prostate, glioma, pancreas, colon, lung, and breast cancers. To perform the assay, cells were allowed to grow in 96-well micro-wells with a flat bottom with an amount of 100 μl of cell suspension per well with 1,000 to 4,000 cells/well depending on the cell type used. Each cell line was seeded in its appropriate culture medium. […] Each experiment was performed in sextaplicates. […] The micro-wells were subsequently incubated during 3 hours at 37° C. and centrifuged at 400 g during 10 minutes. MTT was removed and formazan crystals formed were dissolved in 100 μl DMSO. The micro-wells were shaken for 5 minutes and read on a spectrophotometer at wavelengths of 570 nm (maximal formazan absorbance). For each experimental condition, the mean optical density was calculated, allowing the determination of the percentage of remaining living cells in comparison to the control."}, "[2]": {"tested_on": "PC3", "assay": "MTT test, overall cell growth, PC3", "format": "cell-based, human", "conditions": "read-out: IC50 PC3", "method": "as §1"}, "[3]": {"tested_on": "U-373MG", "assay": "MTT test, overall cell growth, U-373MG", "format": "cell-based, human", "conditions": "read-out: IC50 U-373MG", "method": "as §1"}, "[4]": {"tested_on": "MCF-7", "assay": "MTT test, overall cell growth, MCF-7", "format": "cell-based, human", "conditions": "read-out: IC50 MCF-7", "method": "as §1"}, "[5]": {"tested_on": "LoVo", "assay": "MTT test, overall cell growth, LoVo", "format": "cell-based, human", "conditions": "read-out: IC50 LoVo", "method": "as §1"}, "[6]": {"tested_on": "BxPC3", "assay": "MTT test, overall cell growth, BxPC3", "format": "cell-based, human", "conditions": "read-out: IC50 BxPC3", "method": "as §1"}, "[7]": {"tested_on": "PC3", "assay": "Cellular imaging (phase-contrast videomicroscopy), PC3", "format": "cell-based, human", "design": "key to effect on cell morphology / effect on cell migration: +++: high effect: cell migration of most cells is drastically altered for most of the duration of the film; ++: medium effect: compound altering cell migration of an important proportion of the cells although less drastically; +: low effect: compound affecting cell migration of a small part of the cell population, or only for a limited part of the 72 h incubation; −: no effect: as compared to the control conditions, no difference is observed", "conditions": "PC3, 10 μM; for GGRtreated/GGRcontrol: 72 h, global growth ratio; for effect on cell morphology: characterized by the same way as migration", "method": "(§2) Cellular imaging relied on the use of computer-assisted phase-contrast microscopy making possible to film the behavior of living cells in culture dishes for several days. […] The experiment was conducted in quadruplicates. The behaviour of the cells, in terms of morphology, growth/death and migration were thus investigated. The analysis of the films was performed by two operators, working independently. The effect on cell migration was characterized as +++ (high effect: cell migration of most cells is drastically altered for most of the duration of the film), ++ (medium effect: compound altering cell migration of an important proportion of the cells although less drastically), + (low effect: compound affecting cell migration of a small part of the cell population, or only for a limited part of the 72 h incubation), - (no effect: as compared to the control conditions, no difference is observed). The effect on cell morphology was characterized by the same way. The effect on the overall growth was measured by counting the number of cells on the first (0 h) and the last image (72 h) of each film. The global growth ratio (GGR) was then deduced by dividing the number of cells on the last image by the number of cells on the first image. The ratio […], was further calculated thereby obtaining a value that describes the effect of compounds of the present invention on the overall cell growth."}, "[8]": {"tested_on": "U-373 MG", "assay": "Cellular imaging (phase-contrast videomicroscopy), U-373 MG", "format": "cell-based, human", "conditions": "10 μM, 72 h, global growth ratio", "method": "as §2"}, "[9]": {"tested_on": "isolated neutrophils stimulated by phorbol myristate acetate (PMA)", "assay": "ROS production by PMA-stimulated isolated neutrophils (chemiluminescence)", "format": "cell-based", "conditions": "FIG. 16", "method": "(§3) The ROS production and the release of MPO by activated neutrophils were measured by chemiluminescence and ELISA techniques, respectively (Franck et al., 2008, Physiol. Res. 57(4):577-87). The activity of purified MPO was measured by using an original method called […] (specific immune extraction followed by enzymatic detection) allowing the study of drug interaction with the enzyme without interferences of the medium (Franck et al., 2006, J Vet Diagn Invest, 18(4):326-34)."}, "[10]": {"tested_on": "isolated neutrophils stimulated by phorbol myristate acetate (PMA)", "assay": "MPO release by activated neutrophils (ELISA)", "format": "cell-based", "conditions": "FIG. 18", "method": "as §3"}, "[11]": {"tested_on": "purified MPO", "assay": "Activity of purified MPO (SIEFED)", "format": "biochemical", "conditions": "FIG. 17", "method": "as §3"}, "[12]": {"assay": "Solubilities in water (20° C.)", "format": "physicochemical", "text": "The compound according to the invention allows therefore to increase the solubility of curcumin derivatives in aqueous solutions which in turn enables IV administrations and/or increases their bioavailability. The table below presents the solubilities of the various intermediates."}, "[13]": {"assay": "physchem", "conditions": "aqueous with cosolvent or surfactant or cyclodextrin"}, "[14]": {"tested_on": "SC-VII mouse head and neck cancer cells", "assay": "SC-VII mouse head and neck orthotopic cancer model, survival", "format": "in vivo", "conditions": "IP, NDS27 20 mg/kg 3 times per day, 5 days per week, 3 weeks, cisplatin 5 mg/kg 1 time per week, control vehicle", "method": "To test the in vivo anti-cancer activity of the compound according to the invention, we made use of the SC-VII mouse head and neck orthotopic cancer model. SC-VII mouse head and neck cancer cells were cultivated in conventional culture medium containing supplementation in foetal calf serum and antibiotics (penicillin/streptomycin and gentamycin). 500 000 cancer cells were grafted in a serum free culture medium (50 μl) into the floor of the mouth of each mouse. 5 days after the graft, the 44 animals were divided into four groups of 11 mice. The treatments were as follows: • Group 1: mice treated with the vehicle alone (HP-beta-CD—L-Lysine solution) • Group 2: mice treated with cisplatin administered IP at the dosis of 5 mg/kg, 1 time per week during 3 weeks • Group 3: mice treated IP with the NDS27 compound according to the invention administered 3 times per day, 5 days per week during 3 weeks at the doses of 20 mg/kg • Group 4: mice treated with a combination of both treatments described for groups 2 and 3.\nMice were sacrificed when they lost 20% of their weight or when tumour reached 500 mm^2. Survival of the animals was followed and is illustrated in FIG. 8."}, "[15]": {"assay": "Influence of different cyclodextrins on curcumin solubility", "format": "physicochemical", "conditions": "FIGS. 11a and 11b"}}, "note": "Like-named read-outs stand apart in the source and are kept apart here."}
{"compound": "Curcumin Lysinate", "values": [{"measurement": "IC50", "setting": "[1]; MTT, 72 hours, lung cancer cell line", "value": "> 10", "unit": "µM"}, {"measurement": "IC50", "setting": "[2]; MTT, 72 hours, prostate cancer cell line", "value": "> 10", "unit": "µM"}, {"measurement": "IC50", "setting": "[3]; MTT, 72 hours, glioma cell line", "value": 10, "unit": "µM"}, {"measurement": "IC50", "setting": "[4]; MTT, 72 hours, breast cancer cell line", "value": "> 10", "unit": "µM"}, {"measurement": "IC50", "setting": "[5]; MTT, 72 hours, colon cancer cell line", "value": "> 10", "unit": "µM"}, {"measurement": "IC50", "setting": "[6]; MTT, 72 hours, pancreas cancer cell line", "value": "> 10", "unit": "µM"}, {"measurement": "GGRtreated/GGRcontrol", "setting": "[7]", "value": 0.4}, {"measurement": "effect on cell migration", "setting": "[7]; filmed 72 h", "value": "++"}, {"measurement": "effect on cell morphology", "setting": "[7]; filmed 72 h", "value": "++"}, {"measurement": "GGRtreated/GGRcontrol", "setting": "[8]", "value": 0.2}, {"measurement": "inhibitory effect on ROS production / release", "setting": "[9]", "value": "dose-dependent inhibitory effects"}, {"measurement": "effect on MPO release by activated neutrophils", "setting": "[10]", "value": "dose-dependent inhibitory effects"}, {"measurement": "inhibitory effect on purified MPO activity", "setting": "[11]", "value": "dose-dependent inhibitory effects"}]}
{"compound": "NCCCC[C@H](N)C(=O)O", "note": "[Lysine]", "values": [{"measurement": "solubility", "setting": "[12]; 20 °C, water", "value": 640, "unit": "mg/mL"}]}
{"compound": "COc1cc(/C=C/C(=O)CC(=O)/C=C/c2ccc(O)c(OC)c2)ccc1O", "note": "[curcumin]", "values": [{"measurement": "solubility", "setting": "[12]; Water (20° C.), read-out: solubility", "value": "~0.0003", "unit": "mg/mL"}, {"measurement": "IC50", "setting": "[1]; Homo sapiens, A549, MTT, 72 hours, lung cancer cell line", "value": "> 10", "unit": "µM"}, {"measurement": "IC50", "setting": "[2]; Homo sapiens, PC-3, MTT, 72 hours, prostate cancer cell line", "value": "> 10", "unit": "µM"}, {"measurement": "IC50", "setting": "[3]; Homo sapiens, U373 MG, MTT, 72 hours, glioma cell line", "value": 8.1, "unit": "µM"}, {"measurement": "IC50", "setting": "[4]; Homo sapiens, MCF7, MTT, 72 hours, breast cancer cell line", "value": "> 10", "unit": "µM"}, {"measurement": "IC50", "setting": "[5]; Homo sapiens, LoVo, MTT, 72 hours, colon cancer cell line", "value": 9.3, "unit": "µM"}, {"measurement": "IC50", "setting": "[6]; Homo sapiens, BXPC-3, MTT, 72 hours, pancreas cancer cell line", "value": 9.5, "unit": "µM"}, {"measurement": "GGRtreated/GGRcontrol", "setting": "[7]", "value": 0.5}, {"measurement": "effect on cell morphology", "setting": "[7]; filmed 72 h", "value": "+"}, {"measurement": "GGRtreated/GGRcontrol", "setting": "[8]", "value": 0.2}, {"measurement": "inhibitory effect on ROS production / release", "setting": "[9]", "value": "dose-dependent inhibitory effects"}, {"measurement": "effect on MPO release by activated neutrophils", "setting": "[10]", "value": "dose-dependent inhibitory effects"}, {"measurement": "inhibitory effect on purified MPO activity", "setting": "[11]", "value": "dose-dependent inhibitory effects"}, {"measurement": "solubility", "setting": "[13]", "value": "≤ 100", "unit": "mM"}]}
{"compound": "N.N.[Cl][Pt][Cl]", "note": "[cisplatin]", "values": [{"measurement": "T/C index (ratio of median survival of treated mice to control group)", "setting": "[14]", "value": 163, "unit": "%"}]}
{"compound": "COc1cc(CCC(=O)CC(=O)CCc2ccc(O)c(OC)c2)ccc1O", "note": "[Tetrahydrocurcumin, tetrahydrocurcumin]", "values": [{"measurement": "IC50", "setting": "[1]; Homo sapiens, A549, 72 h", "value": "> 10", "unit": "µM"}, {"measurement": "IC50", "setting": "[2]; Homo sapiens, PC-3, 72 h", "value": "> 10", "unit": "µM"}, {"measurement": "IC50", "setting": "[3]; Homo sapiens, U373 MG, 72 h", "value": "> 10", "unit": "µM"}, {"measurement": "IC50", "setting": "[4]; Homo sapiens, MCF7, 72 h", "value": "> 10", "unit": "µM"}, {"measurement": "IC50", "setting": "[5]; Homo sapiens, LoVo, 72 h", "value": "> 10", "unit": "µM"}, {"measurement": "IC50", "setting": "[6]; Homo sapiens, BXPC-3, 72 h", "value": "> 10", "unit": "µM"}]}
{"compound": "hydroxypropyl-beta-cyclodextrin complex of curcumin lysinate [NDS27]", "values": [{"measurement": "solubility", "setting": "[12]", "value": 10, "unit": "mg/mL"}]}
{"compound": "CC(O)COC[C@H]1O[C@@H]2O[C@H]3[C@H](O)[C@@H](O)[C@@H](O[C@H]4[C@H](O)[C@@H](O)[C@@H](O[C@H]5[C@H](O)[C@@H](O)[C@@H](O[C@H]6[C@H](O)[C@@H](O)[C@@H](O[C@H]7[C@H](O)[C@@H](O)[C@@H](O[C@H]8[C@H](O)[C@@H](O)[C@@H](O[C@H]1[C@H](O)[C@H]2O)O[C@@H]8COCC(C)O)O[C@@H]7COCC(C)O)O[C@@H]6COCC(C)O)O[C@@H]5COCC(C)O)O[C@@H]4COCC(C)O)O[C@@H]3COCC(C)O", "note": "(stereo partly drawn) [HP-beta-CD, hydroxypropyl-beta-cyclodextrin]", "values": [{"measurement": "solubility", "setting": "[12]", "value": 500, "unit": "mg/mL"}, {"measurement": "effect of the cyclodextrin on curcumin solubility", "setting": "[15]", "value": "clearly increase the solubility of curcumin"}]}
